Source: ChEMBL document CHEMBL5032504, “Discovery and Optimization of a Novel 2H-Pyrazolo[3,4-d]pyrimidine Derivative as a Potent Irreversible Pan-Fibroblast Growth Factor Receptor Inhibitor” (J Med Chem, 2021)

What was measured:
Huh-7 = assay: cells; assay type: functional, cell-based; conditions: Homo sapiens, Huh-7, 96 h
SNU-16 [1] = assay: cells; assay type: functional, cell-based; conditions: Homo sapiens, SNU-16, 96 h
NCI-H1581 [2] = assay: cells; assay type: functional, cell-based; conditions: Homo sapiens, NCI-H1581, 96 h
SK-HEP1 = assay: cells; assay type: functional, cell-based; conditions: Homo sapiens, SK-HEP1, 96 h
NCI-H460 = assay: cells; assay type: functional, cell-based; conditions: Homo sapiens, NCI-H460, 96 h
[3] = target: Serine/threonine-protein kinase TAO1 (Homo sapiens) (UniProt Q7L7X3); conditions: dose 1000.0 nM
Description: Inhibition of TAOK1 (unknown origin) at 1000 nM relative to control

in vivo [4] = conditions: Sprague-Dawley, rat, iv, 5 mg/kg
Description: Initial plasma concentration in Sprague-Dawley rat at 5 mg/kg, iv administered as single dose measured up to 8 hrs by LC/MS-MS analysis

in vivo [5] = conditions: Sprague-Dawley, rat, po, 5 mg/kg
Description: MRT in Sprague-Dawley rat at 5 mg/kg, po administered as single dose measured up to 8 hrs by LC/MS-MS analysis

[6] = target: Calcium/calmodulin-dependent protein kinase type II subunit alpha (Homo sapiens) (UniProt Q9UQM7); conditions: dose 1000.0 nM
Description: Inhibition of CAMK2 alpha (unknown origin) at 1000 nM relative to control

[7] = target: Serine/threonine-protein kinase PAK 3 (Homo sapiens) (UniProt O75914); conditions: dose 1000.0 nM
Description: Inhibition of PAK3 (unknown origin) at 1000 nM relative to control

[8] = target: Platelet-derived growth factor receptor alpha (Homo sapiens) (UniProt P16234); conditions: dose 1000.0 nM
Platelet-derived growth factor receptor alpha (Homo sapiens), sequence (P16234 whole entry): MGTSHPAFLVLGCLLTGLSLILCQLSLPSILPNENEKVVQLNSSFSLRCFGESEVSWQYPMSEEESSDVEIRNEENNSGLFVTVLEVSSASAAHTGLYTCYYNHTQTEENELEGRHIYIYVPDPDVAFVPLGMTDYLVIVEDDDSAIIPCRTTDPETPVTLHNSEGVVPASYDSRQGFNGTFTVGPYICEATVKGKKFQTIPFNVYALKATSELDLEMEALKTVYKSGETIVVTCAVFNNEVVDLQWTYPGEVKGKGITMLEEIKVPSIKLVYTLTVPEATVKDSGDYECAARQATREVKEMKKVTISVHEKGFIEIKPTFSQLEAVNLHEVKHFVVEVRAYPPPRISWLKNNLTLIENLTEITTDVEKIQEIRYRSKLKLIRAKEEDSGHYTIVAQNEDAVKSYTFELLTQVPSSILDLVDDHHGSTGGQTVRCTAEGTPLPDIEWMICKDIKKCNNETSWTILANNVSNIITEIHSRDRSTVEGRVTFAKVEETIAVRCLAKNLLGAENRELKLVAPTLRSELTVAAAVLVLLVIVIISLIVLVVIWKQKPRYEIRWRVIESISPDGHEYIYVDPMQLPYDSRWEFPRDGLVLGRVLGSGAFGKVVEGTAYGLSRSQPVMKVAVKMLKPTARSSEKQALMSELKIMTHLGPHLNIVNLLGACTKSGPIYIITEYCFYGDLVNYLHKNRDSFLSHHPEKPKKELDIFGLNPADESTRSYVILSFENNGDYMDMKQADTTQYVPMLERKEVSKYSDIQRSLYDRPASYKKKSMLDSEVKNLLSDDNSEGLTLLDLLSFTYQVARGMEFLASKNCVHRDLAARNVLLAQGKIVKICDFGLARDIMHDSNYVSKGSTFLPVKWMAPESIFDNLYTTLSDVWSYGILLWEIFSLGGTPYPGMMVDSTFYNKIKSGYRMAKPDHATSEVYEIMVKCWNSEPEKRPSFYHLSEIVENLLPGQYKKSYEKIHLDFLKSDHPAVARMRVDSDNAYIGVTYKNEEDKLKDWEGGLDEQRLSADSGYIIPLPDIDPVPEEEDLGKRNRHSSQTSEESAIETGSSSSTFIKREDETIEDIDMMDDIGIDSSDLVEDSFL
Description: Inhibition of PDGFRA (unknown origin) at 1000 nM relative to control

[9] = target: Tyrosine-protein kinase Mer (Homo sapiens) (UniProt Q12866); conditions: dose 1000.0 nM
Description: Inhibition of c-MER (unknown origin) at 1000 nM relative to control

[10] = target: Receptor tyrosine-protein kinase erbB-2 (Homo sapiens) (UniProt P04626); conditions: dose 1000.0 nM
Description: Inhibition of HER2 (unknown origin) at 1000 nM relative to control

[11] = target: Vascular endothelial growth factor receptor 2 (Homo sapiens) (UniProt P35968); conditions: dose 1000.0 nM
Description: Inhibition of VEGFR2(unknown origin) at 1000 nM relative to control

in vivo [12] = conditions: Sprague-Dawley, rat, po, 5 mg/kg; remark: listed apart in the source
Description: Half life in Sprague-Dawley rat plasma at 5 mg/kg, po administered as single dose measured up to 8 hrs by LC/MS-MS analysis

[13] = target: Serine/threonine-protein kinase Chk1 (Homo sapiens) (UniProt O14757); conditions: dose 1000.0 nM
Description: Inhibition of CHK1 (unknown origin) at 1000 nM relative to control

[14] = target: RAC-gamma serine/threonine-protein kinase (Homo sapiens) (UniProt Q9Y243); conditions: dose 1000.0 nM
Description: Inhibition of AKT3 (unknown origin) at 1000 nM relative to control

[15] = target: Tyrosine-protein kinase receptor UFO (Homo sapiens) (UniProt P30530); conditions: dose 1000.0 nM
Description: Inhibition of AXL (unknown origin) at 1000 nM relative to control

[16] = target: Maternal embryonic leucine zipper kinase (Homo sapiens) (UniProt Q14680); conditions: dose 1000.0 nM
Description: Inhibition of MELK (unknown origin) at 1000 nM relative to control

[17] = target: TGF-beta receptor type-1 (Homo sapiens) (UniProt P36897); conditions: dose 1000.0 nM
Description: Inhibition of TGFBR1 (unknown origin) at 1000 nM relative to control

[18] = target: Serine/threonine-protein kinase pim-1 (Homo sapiens) (UniProt P11309); conditions: dose 1000.0 nM
Description: Inhibition of PIM1 (unknown origin) at 1000 nM relative to control

in vivo [19] = conditions: Sprague-Dawley, rat, po, 5 mg/kg; remark: listed apart in the source
Description: Clearance in Sprague-Dawley rat at 5 mg/kg, po administered as single dose measured up to 8 hrs by LC/MS-MS analysis

[20] = target: Serine/threonine-protein kinase TBK1 (Homo sapiens) (UniProt Q9UHD2); conditions: dose 1000.0 nM
Description: Inhibition of TBK1 (unknown origin) at 1000 nM relative to control

[21] = target: Epidermal growth factor receptor (Homo sapiens) (UniProt P00533); conditions: dose 1000.0 nM
Epidermal growth factor receptor (Homo sapiens), sequence (P00533 whole entry): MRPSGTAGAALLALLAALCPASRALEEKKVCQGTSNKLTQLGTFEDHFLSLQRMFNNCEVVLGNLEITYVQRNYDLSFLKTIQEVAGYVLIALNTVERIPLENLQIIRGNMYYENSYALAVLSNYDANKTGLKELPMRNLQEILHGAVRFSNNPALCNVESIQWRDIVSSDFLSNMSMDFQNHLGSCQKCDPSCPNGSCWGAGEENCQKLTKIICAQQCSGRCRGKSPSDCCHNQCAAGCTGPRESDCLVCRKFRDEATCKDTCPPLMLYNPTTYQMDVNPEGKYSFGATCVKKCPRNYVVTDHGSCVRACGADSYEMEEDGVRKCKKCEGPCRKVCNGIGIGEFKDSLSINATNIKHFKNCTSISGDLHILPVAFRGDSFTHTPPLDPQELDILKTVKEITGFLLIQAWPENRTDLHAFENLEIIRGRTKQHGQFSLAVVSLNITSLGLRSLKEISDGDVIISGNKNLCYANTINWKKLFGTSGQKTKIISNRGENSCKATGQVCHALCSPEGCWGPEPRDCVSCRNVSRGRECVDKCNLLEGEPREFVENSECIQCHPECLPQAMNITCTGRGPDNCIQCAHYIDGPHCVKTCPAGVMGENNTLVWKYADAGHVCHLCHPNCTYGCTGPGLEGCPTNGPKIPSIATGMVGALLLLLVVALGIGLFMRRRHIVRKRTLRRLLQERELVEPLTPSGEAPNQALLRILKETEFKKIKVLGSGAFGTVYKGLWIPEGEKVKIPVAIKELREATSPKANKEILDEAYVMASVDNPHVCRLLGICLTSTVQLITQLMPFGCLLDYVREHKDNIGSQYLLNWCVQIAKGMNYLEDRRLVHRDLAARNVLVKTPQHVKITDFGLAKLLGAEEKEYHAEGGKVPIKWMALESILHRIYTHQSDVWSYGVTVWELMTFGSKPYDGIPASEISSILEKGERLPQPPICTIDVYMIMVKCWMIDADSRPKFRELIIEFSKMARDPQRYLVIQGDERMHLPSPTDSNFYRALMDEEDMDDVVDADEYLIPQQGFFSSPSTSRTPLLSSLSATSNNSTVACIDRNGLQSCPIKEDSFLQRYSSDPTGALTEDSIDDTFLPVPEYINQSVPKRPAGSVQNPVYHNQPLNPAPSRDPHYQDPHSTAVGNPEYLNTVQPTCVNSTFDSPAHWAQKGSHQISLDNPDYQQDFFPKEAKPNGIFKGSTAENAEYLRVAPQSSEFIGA
Description: Inhibition of EGFR (unknown origin) at 1000 nM relative to control

[22] = target: Tyrosine-protein kinase BTK (Homo sapiens) (UniProt Q06187); conditions: dose 1000.0 nM
Description: Inhibition of BTK (unknown origin) at 1000 nM relative to control

[23] = target: Glycogen synthase kinase-3 beta (Homo sapiens) (UniProt P49841); conditions: dose 1000.0 nM
Description: Inhibition of GSK3beta (unknown origin) at 1000 nM relative to control

[24] = target: Serine/threonine-protein kinase Nek3 (Homo sapiens) (UniProt P51956); conditions: dose 1000.0 nM
Description: Inhibition of NEK3 (unknown origin) at 1000 nM relative to control

Homo sapiens [25] = species: Homo sapiens; conditions: dose 1000.0 nM
Description: Inhibition of FYNA (unknown origin) at 1000 nM relative to control

in vivo [26] = conditions: Sprague-Dawley, rat, po, 5 mg/kg; remark: listed apart in the source
[27] = target: Aurora kinase A (Homo sapiens) (UniProt O14965); conditions: dose 1000.0 nM
Description: Inhibition of AURORA kinase A (unknown origin) at 1000 nM relative to control

[28] = target: Mitogen-activated protein kinase kinase kinase 14 (Homo sapiens) (UniProt Q99558); conditions: dose 1000.0 nM
Description: Inhibition of NIK (unknown origin) at 1000 nM relative to control

in vivo [29] = conditions: Sprague-Dawley, rat, iv, 5 mg/kg; remark: listed apart in the source
[30] = target: Mitogen-activated protein kinase 8 (Homo sapiens) (UniProt P45983); conditions: dose 1000.0 nM
Description: Inhibition of JNK1 (unknown origin) at 1000 nM relative to control

[31] = target: Mitogen-activated protein kinase 1 (Homo sapiens) (UniProt P28482); conditions: dose 1000.0 nM
Description: Inhibition of MAPK1 (unknown origin) at 1000 nM relative to control

in vivo [32] = conditions: Sprague-Dawley, rat, po, 5 mg/kg; remark: listed apart in the source
[33] = target: Interleukin-1 receptor-associated kinase 4 (Homo sapiens) (UniProt Q9NWZ3); conditions: dose 1000.0 nM
Description: Inhibition of IRAK4 (unknown origin) at 1000 nM relative to control

[34] = target: Proto-oncogene tyrosine-protein kinase Src (Homo sapiens) (UniProt P12931); conditions: dose 1000.0 nM
Proto-oncogene tyrosine-protein kinase Src (Homo sapiens), sequence (P12931 2-536 limits assumed): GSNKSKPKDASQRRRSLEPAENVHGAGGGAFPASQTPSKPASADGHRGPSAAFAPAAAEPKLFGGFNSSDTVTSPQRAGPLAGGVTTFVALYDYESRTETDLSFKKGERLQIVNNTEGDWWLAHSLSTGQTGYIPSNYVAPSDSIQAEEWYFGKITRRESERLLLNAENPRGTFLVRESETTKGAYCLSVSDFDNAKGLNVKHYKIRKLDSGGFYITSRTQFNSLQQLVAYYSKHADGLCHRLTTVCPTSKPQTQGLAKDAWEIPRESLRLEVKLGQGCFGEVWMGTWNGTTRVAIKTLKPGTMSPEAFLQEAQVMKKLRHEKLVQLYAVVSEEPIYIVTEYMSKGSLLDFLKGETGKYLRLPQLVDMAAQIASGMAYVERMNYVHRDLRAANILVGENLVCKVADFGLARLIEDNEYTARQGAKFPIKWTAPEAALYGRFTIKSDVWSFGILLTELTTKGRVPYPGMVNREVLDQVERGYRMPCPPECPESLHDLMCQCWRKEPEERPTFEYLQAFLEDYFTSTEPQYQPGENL
Description: Inhibition of SRC (unknown origin) at 1000 nM relative to control

[35] = target: Serine/threonine-protein kinase Nek2 (Homo sapiens) (UniProt P51955); conditions: dose 1000.0 nM
Description: Inhibition of NEK2 (unknown origin) at 1000 nM relative to control

[36] = target: Proto-oncogene tyrosine-protein kinase receptor Ret (Homo sapiens) (UniProt P07949); conditions: dose 1000.0 nM
Description: Inhibition of RET (unknown origin) at 1000 nM relative to control

Homo sapiens [37] = species: Homo sapiens; conditions: dose 1000.0 nM; remark: listed apart in the source
Description: Inhibition of PKA (unknown origin) at 1000 nM relative to control

SNU-16 [38] = assay: animal or person; assay type: functional; conditions: Mus musculus, SNU-16, po, 960 h, time 40 day, read-out: TGI
Description: Antitumor activity against human SNU-16 cells xenografted in BALB/c mouse assessed as tumor growth inhibition at 100 mg/kg, po administered once daily for 40 days relative to control

[39] = target: Tyrosine-protein kinase ABL1 (Homo sapiens) (UniProt P00519); conditions: dose 1000.0 nM
Description: Inhibition of ABL1 (unknown origin) at 1000 nM relative to control

[40] = target: Tyrosine-protein kinase ITK/TSK (Homo sapiens) (UniProt Q08881); conditions: dose 1000.0 nM
Description: Inhibition of ITK (unknown origin) at 1000 nM relative to control

[41] = target: Macrophage-stimulating protein receptor (Homo sapiens) (UniProt Q04912); conditions: dose 1000.0 nM
Description: Inhibition of RON (unknown origin) at 1000 nM relative to control

[42] = target: Mitogen-activated protein kinase 14 (Homo sapiens) (UniProt Q16539); conditions: dose 1000.0 nM
Description: Inhibition of P38alpha (unknown origin) at 1000 nM relative to control

[43] = target: Dual specificity protein kinase CLK1 (Homo sapiens) (UniProt P49759); conditions: dose 1000.0 nM
Dual specificity protein kinase CLK1 (Homo sapiens), sequence (P49759 whole entry, looked up): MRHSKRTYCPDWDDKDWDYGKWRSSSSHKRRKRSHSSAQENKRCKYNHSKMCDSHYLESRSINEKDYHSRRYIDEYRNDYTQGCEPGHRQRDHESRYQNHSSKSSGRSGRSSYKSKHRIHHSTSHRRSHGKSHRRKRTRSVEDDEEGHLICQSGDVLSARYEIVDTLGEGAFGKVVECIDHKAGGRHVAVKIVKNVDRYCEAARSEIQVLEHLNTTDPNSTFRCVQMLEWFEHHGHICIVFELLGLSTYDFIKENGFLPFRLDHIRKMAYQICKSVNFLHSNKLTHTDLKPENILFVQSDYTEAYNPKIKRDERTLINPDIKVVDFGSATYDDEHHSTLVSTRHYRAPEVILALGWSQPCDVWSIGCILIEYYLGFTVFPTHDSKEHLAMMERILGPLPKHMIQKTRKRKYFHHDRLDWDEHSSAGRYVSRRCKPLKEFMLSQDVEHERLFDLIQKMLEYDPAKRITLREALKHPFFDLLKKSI
Description: Inhibition of CLK1 (unknown origin) at 1000 nM relative to control

[44] = target: Mitogen-activated protein kinase kinase kinase 5 (Homo sapiens) (UniProt Q99683); conditions: dose 1000.0 nM
Description: Inhibition of ASK1 (unknown origin) at 1000 nM relative to control

[45] = target: Discoidin domain-containing receptor 2 (Homo sapiens) (UniProt Q16832); conditions: dose 1000.0 nM
Description: Inhibition of DDR2 (unknown origin) at 1000 nM relative to control

[46] = target: Cyclin-dependent kinase 4 (Homo sapiens) (UniProt P11802); conditions: dose 1000.0 nM
Description: Inhibition of CDK4 (unknown origin) at 1000 nM relative to control

NCI-H1581 [47] = assay: animal or person; assay type: functional; conditions: Mus musculus, NCI-H1581, po, 624 h, time 26 day, read-out: TGI
Description: Antitumor activity against human NCI-H1581 cells xenografted in BALB/c mouse assessed as tumor growth inhibition at 50 mg/kg, po administered once daily for 26 days relative to control

[48] = target: Interferon-induced, double-stranded RNA-activated protein kinase (Homo sapiens) (UniProt P19525); conditions: dose 1000.0 nM
Description: Inhibition of EIF2AK2 (unknown origin) at 1000 nM relative to control

[49] = target: Focal adhesion kinase 1 (Homo sapiens) (UniProt Q05397); conditions: dose 1000.0 nM
Description: Inhibition of FAK (unknown origin) at 1000 nM relative to control

[50] = target: Casein kinase II subunit alpha (Homo sapiens) (UniProt P68400); conditions: dose 1000.0 nM
Description: Inhibition of CK2alpha1 (unknown origin) at 1000 nM relative to control

[51] = target: Tyrosine-protein kinase JAK3 (Homo sapiens) (UniProt P52333); conditions: dose 1000.0 nM
Description: Inhibition of JAK3 (unknown origin) at 1000 nM relative to control

[52] = target: Tyrosine-protein kinase Lck (Homo sapiens) (UniProt P06239); conditions: dose 1000.0 nM
Description: Inhibition of LCK (unknown origin) at 1000 nM relative to control

[53] = target: Rho-associated protein kinase 1 (Homo sapiens) (UniProt Q13464); conditions: dose 1000.0 nM
Description: Inhibition of ROCK1 (unknown origin) at 1000 nM relative to control

[54] = target: ALK tyrosine kinase receptor (Homo sapiens) (UniProt Q9UM73); conditions: dose 1000.0 nM
ALK tyrosine kinase receptor (Homo sapiens), sequence (Q9UM73 19-1620 limits assumed): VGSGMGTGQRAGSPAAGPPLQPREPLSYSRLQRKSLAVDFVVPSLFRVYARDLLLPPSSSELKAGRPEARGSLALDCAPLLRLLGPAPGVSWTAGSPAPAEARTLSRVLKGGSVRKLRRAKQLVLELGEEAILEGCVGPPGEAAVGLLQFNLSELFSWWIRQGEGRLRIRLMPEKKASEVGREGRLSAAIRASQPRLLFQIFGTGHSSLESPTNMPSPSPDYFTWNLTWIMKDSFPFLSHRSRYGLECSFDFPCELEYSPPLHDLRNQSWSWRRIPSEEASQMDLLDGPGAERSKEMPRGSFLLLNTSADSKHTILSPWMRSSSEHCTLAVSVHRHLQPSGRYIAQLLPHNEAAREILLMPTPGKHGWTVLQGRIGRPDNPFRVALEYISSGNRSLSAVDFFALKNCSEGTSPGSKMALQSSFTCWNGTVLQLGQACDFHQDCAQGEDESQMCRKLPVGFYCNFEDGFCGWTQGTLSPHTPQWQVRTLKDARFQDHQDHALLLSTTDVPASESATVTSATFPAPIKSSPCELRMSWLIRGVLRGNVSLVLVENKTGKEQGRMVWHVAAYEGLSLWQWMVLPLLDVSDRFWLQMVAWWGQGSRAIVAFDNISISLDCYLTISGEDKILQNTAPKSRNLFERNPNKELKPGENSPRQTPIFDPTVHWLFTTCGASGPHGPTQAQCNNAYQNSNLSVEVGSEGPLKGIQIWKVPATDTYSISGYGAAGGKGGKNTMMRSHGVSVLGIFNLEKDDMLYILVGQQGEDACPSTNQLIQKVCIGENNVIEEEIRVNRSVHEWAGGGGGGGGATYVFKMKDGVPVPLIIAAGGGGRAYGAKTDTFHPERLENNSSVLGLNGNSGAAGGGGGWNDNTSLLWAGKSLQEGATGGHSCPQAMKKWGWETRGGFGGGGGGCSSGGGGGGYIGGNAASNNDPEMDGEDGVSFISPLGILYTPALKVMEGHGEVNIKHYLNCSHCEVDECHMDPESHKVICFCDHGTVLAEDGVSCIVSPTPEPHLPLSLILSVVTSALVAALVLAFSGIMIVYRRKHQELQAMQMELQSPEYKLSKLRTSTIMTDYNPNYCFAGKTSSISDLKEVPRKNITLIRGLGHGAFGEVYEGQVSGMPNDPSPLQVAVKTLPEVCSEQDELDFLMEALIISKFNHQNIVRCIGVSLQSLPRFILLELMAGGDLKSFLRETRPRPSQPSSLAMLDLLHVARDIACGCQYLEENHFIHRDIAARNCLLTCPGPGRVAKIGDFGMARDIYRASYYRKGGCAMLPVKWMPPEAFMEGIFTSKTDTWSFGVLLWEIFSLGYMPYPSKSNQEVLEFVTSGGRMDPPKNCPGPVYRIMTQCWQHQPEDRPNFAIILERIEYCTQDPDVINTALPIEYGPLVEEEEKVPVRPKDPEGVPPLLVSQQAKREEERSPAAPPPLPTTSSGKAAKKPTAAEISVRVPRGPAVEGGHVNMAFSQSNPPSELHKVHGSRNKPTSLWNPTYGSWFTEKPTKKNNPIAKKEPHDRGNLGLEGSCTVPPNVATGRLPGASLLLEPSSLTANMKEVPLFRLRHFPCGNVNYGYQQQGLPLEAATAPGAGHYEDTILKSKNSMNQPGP
Description: Inhibition of ALK (unknown origin) at 1000 nM relative to control

[55] = target: Serine/threonine-protein kinase B-raf (Homo sapiens) (UniProt P15056); conditions: dose 1000.0 nM
Description: Inhibition of BRAF (unknown origin) at 1000 nM relative to control

in vivo [56] = conditions: Sprague-Dawley, rat, iv, 5 mg/kg; remark: listed apart in the source
in vivo [57] = conditions: Sprague-Dawley, rat, iv, 5 mg/kg; remark: listed apart in the source
Description: MRT in Sprague-Dawley rat at 5 mg/kg, iv administered as single dose measured up to 8 hrs by LC/MS-MS analysis

[58] = target: Glycogen synthase kinase-3 alpha (Homo sapiens) (UniProt P49840); conditions: dose 1000.0 nM
Description: Inhibition of GSK3alpha (unknown origin) at 1000 nM relative to control

[59] = target: Tyrosine-protein kinase CSK (Homo sapiens) (UniProt P41240); conditions: dose 1000.0 nM
Description: Inhibition of CSK (unknown origin) at 1000 nM relative to control

[60] = target: Hepatocyte growth factor receptor (Homo sapiens) (UniProt P08581); conditions: dose 1000.0 nM
Description: Inhibition of MET (unknown origin) at 1000 nM relative to control

SNU-16 [61] = assay: animal or person; assay type: functional; conditions: Mus musculus, SNU-16, po, 960 h, time 40 day, read-out: TGI; remark: listed apart in the source
Description: Antitumor activity against human SNU-16 cells xenografted in BALB/c mouse assessed as tumor growth inhibition at 50 mg/kg, po administered once daily for 40 days relative to control

[62] = target: Receptor-type tyrosine-protein kinase FLT3 (Homo sapiens) (UniProt P36888); conditions: dose 1000.0 nM
Description: Inhibition of FLT3 (unknown origin) at 1000 nM relative to control

NCI-H1581 [63] = assay: animal or person; assay type: functional; conditions: Mus musculus, NCI-H1581, po, 624 h, time 26 day, read-out: TGI; remark: listed apart in the source
Description: Antitumor activity against human NCI-H1581 cells xenografted in BALB/c mouse assessed as tumor growth inhibition at 100 mg/kg, po administered once daily for 26 days relative to control

[64] = target: Voltage-gated inwardly rectifying potassium channel KCNH2 (Homo sapiens, UniProt Q12809)
Description: Binding affinity to human ERG

Structure (SMILES): COc1cc(CCc2cc(NC(=O)c3ccc(N4C[C@@H](C)N[C@@H](C)C4)cc3)n[nH]2)cc(OC)c1 [FEXAGRATINIB]
- IC50 (Huh-7): > 10000 nM
- IC50 (SNU-16 [1]): 6 nM
- IC50 (NCI-H1581 [2]): 24 nM
- IC50 (SK-HEP1): 2780 nM
- IC50 (NCI-H460): > 10000 nM

Structure (SMILES): COc1cc(OC)cc(-c2nn(CCCCCN3CCN(C(=O)/C=C/C(F)(F)F)CC3)c3ncnc(N)c23)c1
- inhibition [3]: 0%
- C0 at 8 h (in vivo [4]): 0.519 ng/mL
- MRT at 8 h (in vivo [5]): 19.1 min
- inhibition [6]: 0%
- inhibition [7]: 9%
- inhibition [8]: 42%
- inhibition [9]: 9%
- inhibition [10]: 3%
- inhibition [11]: 7%
- half-life at 8 h (in vivo [12]): 16.8 min
- inhibition [13]: 2%
- inhibition [14]: 6%
- inhibition [15]: 0%
- inhibition [16]: 0%
- inhibition [17]: 8%
- inhibition [18]: 0%
- CL/F at 8 h (in vivo [19]): 280000 mL/min
- inhibition [20]: 1%
- inhibition [21]: 2%
- inhibition [22]: 0%
- inhibition [23]: 0%
- inhibition [24]: 1%
- inhibition (Homo sapiens [25]): 0%
- bioavailability at 8 h (in vivo [26]): 24.9%
- inhibition [27]: 1%
- inhibition [28]: 0%
- AUC at 8 h (in vivo [29]): 0.309 ng·h/mL
- inhibition [30]: 2%
- inhibition [31]: 4%
- IC50 (SNU-16 [1]): 6 nM
- Tmax at 8 h (in vivo [32]): 8.34 min
- inhibition [33]: 0%
- inhibition [34]: 83%
- inhibition [35]: 0%
- inhibition [36]: 24%
- inhibition (Homo sapiens [37]): 0%
- inhibition in vivo at 100 mg/kg (SNU-16 [38]): 89.4%
- inhibition [39]: 14%
- inhibition [40]: 35%
- inhibition [41]: 4%
- inhibition [42]: 3%
- inhibition [43]: 0%
- inhibition [44]: 0%
- inhibition [45]: 21%
- IC50 (NCI-H1581 [2]): 16 nM
- inhibition [46]: 3%
- inhibition in vivo at 50 mg/kg (NCI-H1581 [47]): 69.5%
- inhibition [48]: 27%
- inhibition [49]: 17%
- inhibition [50]: 0%
- inhibition [51]: 11%
- inhibition [52]: 23%
- inhibition [53]: 12%
- inhibition [54]: 0%
- inhibition [55]: 2%
- Tmax at 8 h (in vivo [56]): 4.98 min
- MRT at 8 h (in vivo [57]): 60.5 min
- inhibition [58]: 0%
- inhibition [59]: 0%
- inhibition [60]: 1%
- inhibition in vivo at 50 mg/kg (SNU-16 [61]): 67.9%
- IC50 (NCI-H460): > 10000 nM
- inhibition [62]: 1%
- inhibition in vivo at 100 mg/kg (NCI-H1581 [63]): 88.6%
- IC50 [64]: 3210 nM
